Results reported in publication PMC6639853, “Deciphering Direct and Indirect Effects of Neurokinin B and GnRH in the Brain-Pituitary Axis of Tilapia” (Frontiers in Endocrinology, 2019).
Several values for one entry are separate records, joined by “and”; a condition that tells them apart may be missing. Identical values can stand only once. Like-named read-outs stand apart in the source and are kept apart here. Starred links: 1 amine or outer side, 2 acyl side, 3 side chain; linkers in the order of their positions; H or OH if unused. Non-standard residues stand in square brackets, D forms with d. Residues, ends and D or L forms follow the SMILES beside them. NMeF = CN[C@@H](Cc1ccccc1)C(=O)O; pGlu = O=C1CC[C@@H](C(=O)O)N1; Suc = O=C(CCC(=O)[*:2])[*:1]

Legend:
tiTac3rb = tiTac3rb (Oreochromis niloticus, UniProt A0A075QUD7); assay: cell-based; details: COS-7 cells, mean ± SEM
Chain of tiTac3rb (A0A075QUD7 1-361): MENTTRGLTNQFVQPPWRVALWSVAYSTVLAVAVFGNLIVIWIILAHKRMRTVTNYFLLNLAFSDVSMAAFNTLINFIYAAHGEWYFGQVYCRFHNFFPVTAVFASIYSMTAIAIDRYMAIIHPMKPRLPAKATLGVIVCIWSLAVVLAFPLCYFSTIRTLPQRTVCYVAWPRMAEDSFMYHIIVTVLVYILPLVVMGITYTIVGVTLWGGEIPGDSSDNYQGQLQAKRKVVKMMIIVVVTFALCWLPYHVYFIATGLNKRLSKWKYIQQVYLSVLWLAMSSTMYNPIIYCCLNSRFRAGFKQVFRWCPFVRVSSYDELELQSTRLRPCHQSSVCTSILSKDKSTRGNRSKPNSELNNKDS
Description: (§2) Receptor transactivation assays were generally performed according to Biran et al. ([10]). Briefly, in order to study the signaling pathways of the novel fish NKB and NKF analogs, the entire coding sequence of tiTac3ra (GenBank accession no. KF471674), tiTac3rb (GenBank accession no. KF471675), zfTac3ra (GenBank accession no. JF317292) and zfTac3rb (GenBank accession no. JF317293) were inserted into pcDNA3.1 (Invitrogen). To differentiate between the protein kinase A (PKA) and PKC signal transduction pathways, we used a sensitive luciferase (Luc) reporter gene assay. […] Three micrograms of each construct together with three micrograms of a luciferase reporter plasmid were transiently co-transfected into COS-7 cells. […] EC50 values were calculated from dose response curves by means of computerized non-linear curve fitting on baseline-corrected (control) values using Prism version 6 software (GraphPad).

female tilapia pituitary = assay: In vivo effect on pituitary gh, fsh and lh mRNA expression (real-time PCR); set-up: species or system Nile tilapia (O. niloticus); details: 24 h post IP injection, 100 μg/kg BW
Protocol: Adult female tilapia (BW 89.29 ± 32.93 g) were injected IP with saline, sGnRH analog ([…]; 10 μg/kg BW; [[…],[…]-Net]-mammalian GnRH; Bachem), tiNKB, tiNKF, or their analogs at 100 μg/kg BW (n = 8 fish per group). The fish were bled from the caudal blood vessels into heparinized syringes 1, 2, 4, 8, and 24 h after injection and blood was centrifuged (3,200 rpm for 30 min at 4°C) to obtain plasma samples, which were stored at -20°C until assayed. This time course is according to standard protocols used previously ([28], [29]) to test the effect of GnRH and other hypothalamic neuropeptides on circulating levels of LH, FSH, and GH in tilapia. Blood samples were collected from the caudal vasculature. Three independent experiments were carried out for the in vivo studies. Pituitaries and three parts of the brain [the olfactory bulbs and telencephalon (front brain), the optic tectum and diencephalon (mid brain), and the cerebellum (hind brain)] were harvested at the end of each in vivo experiment, snap-frozen in liquid nitrogen, and stored at -80°C until extraction. Total RNA was extracted by phenol-chloroform using TRIzol reagent (Invitrogen) and precipitated with ethanol, and 1 μg was used as a template for cDNA synthesis using Verso cDNA kit (Thermo Scientific, Waltham, MA). Real-time PCR analysis was performed according to Biran et al. ([10], [20]). The specificity of the amplification was tested at the end of the PCR by melting-curve analysis and sequencing the PCR products.

huTAC3R (NK3R) = molecular target: T1, huTAC3R (NK3R) (Homo sapiens, UniProt P29371); assay: CRE-/SRE-Luc receptor transactivation reporter assay in COS-7 cells, human TAC3R; assay type: cell-based; details: mean ± SEM
T1 construct: host or cells: COS-7
T1 sequence (P29371 1-465): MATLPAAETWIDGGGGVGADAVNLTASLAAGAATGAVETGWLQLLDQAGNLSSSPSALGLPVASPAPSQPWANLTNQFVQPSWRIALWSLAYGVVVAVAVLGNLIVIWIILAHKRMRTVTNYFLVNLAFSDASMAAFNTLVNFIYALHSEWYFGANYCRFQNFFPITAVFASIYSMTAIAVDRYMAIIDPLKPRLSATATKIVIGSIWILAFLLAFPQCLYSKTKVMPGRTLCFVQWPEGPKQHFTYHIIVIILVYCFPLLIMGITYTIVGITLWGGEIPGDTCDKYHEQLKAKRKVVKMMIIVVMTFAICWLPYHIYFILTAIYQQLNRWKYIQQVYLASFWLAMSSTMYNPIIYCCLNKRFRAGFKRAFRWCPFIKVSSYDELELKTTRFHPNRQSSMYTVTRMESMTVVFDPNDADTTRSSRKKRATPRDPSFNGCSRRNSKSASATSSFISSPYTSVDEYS
Description: (§1) Receptor transactivation assays were generally performed according to Biran et al. ([10]). Briefly, in order to study the signaling pathways of the novel fish NKB and NKF analogs, the entire coding sequence of tiTac3ra (GenBank accession no. KF471674), tiTac3rb (GenBank accession no. KF471675), zfTac3ra (GenBank accession no. JF317292) and zfTac3rb (GenBank accession no. JF317293) were inserted into pcDNA3.1 (Invitrogen). To differentiate between the protein kinase A (PKA) and PKC signal transduction pathways, we used a sensitive luciferase (Luc) reporter gene assay. […] The cDNA clone for human TAC3R was obtained from the Missouri S&T cDNA Resource Center (www.cdna.org). Three micrograms of each construct together with three micrograms of a luciferase reporter plasmid were transiently co-transfected into COS-7 cells. […] EC50 values were calculated from dose response curves by means of computerized non-linear curve fitting on baseline-corrected (control) values using Prism version 6 software (GraphPad).

zfTac3rb = molecular target: T2, zfTac3rb (Danio rerio, UniProt F1R3V0); assay: CRE-/SRE-Luc receptor transactivation reporter assay in COS-7 cells, zebrafish Tac3rb; assay type: cell-based; details: mean ± SEM
T2 sequence (F1R3V0 1-395): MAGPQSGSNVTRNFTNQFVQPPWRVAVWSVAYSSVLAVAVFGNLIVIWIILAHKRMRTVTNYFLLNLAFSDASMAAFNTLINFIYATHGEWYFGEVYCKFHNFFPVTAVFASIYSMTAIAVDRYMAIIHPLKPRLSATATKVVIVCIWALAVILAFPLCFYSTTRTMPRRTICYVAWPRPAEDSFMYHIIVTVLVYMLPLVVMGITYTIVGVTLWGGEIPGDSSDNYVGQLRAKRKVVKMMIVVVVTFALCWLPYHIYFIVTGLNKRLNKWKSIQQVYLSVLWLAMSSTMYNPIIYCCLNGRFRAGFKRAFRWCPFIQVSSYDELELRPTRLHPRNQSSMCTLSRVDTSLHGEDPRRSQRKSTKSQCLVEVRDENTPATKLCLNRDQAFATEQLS
Description: as §1

tiTac3ra [1] = molecular target: T3, tiTac3ra (Oreochromis niloticus, UniProt A0A075QPN8); assay: cell-based; details: COS-7 cells, mean ± SEM
T3 sequence (A0A075QPN8 1-415): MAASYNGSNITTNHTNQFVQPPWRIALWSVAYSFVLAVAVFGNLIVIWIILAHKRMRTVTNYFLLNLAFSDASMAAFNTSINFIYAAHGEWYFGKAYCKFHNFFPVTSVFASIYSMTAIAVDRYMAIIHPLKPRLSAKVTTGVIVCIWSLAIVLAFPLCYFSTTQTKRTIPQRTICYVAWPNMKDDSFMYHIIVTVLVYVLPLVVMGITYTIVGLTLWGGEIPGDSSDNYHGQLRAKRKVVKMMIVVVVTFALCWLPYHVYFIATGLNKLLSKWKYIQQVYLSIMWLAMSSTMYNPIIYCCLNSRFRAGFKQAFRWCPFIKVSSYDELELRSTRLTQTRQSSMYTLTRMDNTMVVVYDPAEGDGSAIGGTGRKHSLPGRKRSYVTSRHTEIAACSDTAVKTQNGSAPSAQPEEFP
Description: as §2

female tilapia = assay: In vivo effect on GH, FSH and LH plasma levels (ELISA) after IP injection; set-up: species or system Nile tilapia (O. niloticus); details: peptides/analogs 100 μg/kg BW
Protocol: Adult female tilapia (BW 89.29 ± 32.93 g) were injected IP with saline, sGnRH analog ([…]; 10 μg/kg BW; [[…],[…]-Net]-mammalian GnRH; Bachem), tiNKB, tiNKF, or their analogs at 100 μg/kg BW (n = 8 fish per group). The fish were bled from the caudal blood vessels into heparinized syringes 1, 2, 4, 8, and 24 h after injection and blood was centrifuged (3,200 rpm for 30 min at 4°C) to obtain plasma samples, which were stored at -20°C until assayed. This time course is according to standard protocols used previously ([28], [29]) to test the effect of GnRH and other hypothalamic neuropeptides on circulating levels of LH, FSH, and GH in tilapia. Blood samples were collected from the caudal vasculature. Three independent experiments were carried out for the in vivo studies. Levels of LH, FSH, and GH in the plasma were measured by specific competitive ELISAs developed for tilapia ([30], [31]) based on recombinant ([…] or rtiGH. Primary antisera was produced against […]β, or rtGH ([31]), and […]βα ([28]) or rtGH was used for generating the standard curves.

zfTac3ra = molecular target: T4, zfTac3ra (Danio rerio, UniProt H6A6A7); assay: CRE-/SRE-Luc receptor transactivation reporter assay in COS-7 cells, zebrafish Tac3ra; assay type: cell-based; details: mean ± SEM
T4 sequence (H6A6A7 1-399): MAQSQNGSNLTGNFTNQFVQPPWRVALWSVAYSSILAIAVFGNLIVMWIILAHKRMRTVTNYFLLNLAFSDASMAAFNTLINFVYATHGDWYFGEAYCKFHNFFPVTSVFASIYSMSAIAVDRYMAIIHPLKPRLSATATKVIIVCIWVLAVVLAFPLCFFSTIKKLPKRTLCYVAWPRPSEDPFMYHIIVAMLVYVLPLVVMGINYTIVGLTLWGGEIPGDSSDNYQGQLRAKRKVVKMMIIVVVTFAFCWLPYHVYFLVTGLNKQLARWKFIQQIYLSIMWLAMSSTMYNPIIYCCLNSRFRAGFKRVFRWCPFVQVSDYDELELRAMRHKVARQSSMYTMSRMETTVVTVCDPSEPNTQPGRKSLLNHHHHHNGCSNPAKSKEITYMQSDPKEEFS
Description: as §1

tiTac3ra [2] = molecular target: T3, tiTac3ra; details: read-out: EC50 tiTac3ra SRE; SRE-Luc reporter (PKC/Ca2+), COS-7 cells, mean ± SEM
Description: as §2

[3] = EC50 tiTac3rb CRE, CRE-Luc reporter (PKA/cAMP)
[4] = EC50 tiTac3rb SRE, SRE-Luc reporter (PKC/Ca2+)
[5] = SRE-Luc reporter (PKC/Ca2+), read-out: EC50 huTAC3R (NK3R) SRE
[6] = EC50 tiTac3ra CRE, CRE-Luc reporter (PKA/cAMP)
[7] = EC50 tiTac3ra SRE, SRE-Luc reporter (PKC/Ca2+)

SMILES | EC50 (tiTac3rb; [3]) [nM] | EC50 (tiTac3rb; [4]) [nM] | GH mRNA expression in pituitary relative to control (female tilapia pituitary) | LHβ mRNA expression in pituitary relative to control (female tilapia pituitary) | EC50 (huTAC3R (NK3R); [5]) [nM] | EC50 (zfTac3rb; CRE-Luc reporter (PKA/cAMP), read-out: EC50 zfTac3rb CRE) [nM] | EC50 (zfTac3rb; SRE-Luc reporter (PKC/Ca2+), read-out: EC50 zfTac3rb SRE) [nM] | EC50 (tiTac3ra [1]; [6]) | EC50 (tiTac3ra [1]; [7]) [nM] | time post-injection at which plasma FSH was first increased (female tilapia) [h] | time post-injection at which plasma LH was first increased (female tilapia; sGnRHa 10 μg/kg BW) [h] | EC50 (zfTac3ra; CRE-Luc reporter (PKA/cAMP), read-out: EC50 zfTac3ra CRE) | EC50 (zfTac3ra; SRE-Luc reporter (PKC/Ca2+), read-out: EC50 zfTac3ra SRE) [nM] | EC50 (tiTac3ra [2]) [nM] | FSHβ mRNA expression in pituitary relative to control (female tilapia pituitary) | EC50 (huTAC3R (NK3R); CRE-Luc reporter (PKA/cAMP), read-out: EC50 huTAC3R (NK3R) CRE) [nM] | time post-injection at which plasma GH was first increased (female tilapia) [h] | duration of increased plasma LH post-injection (female tilapia; sGnRHa 10 μg/kg BW)
CSCC[C@H](NC(=O)[C@H](CC(C)C)NC(=O)CNC(=O)[C@H](C(C)C)N(C)C(=O)[C@H](Cc1ccccc1)NC(=O)[C@H](CO)NC(=O)[C@H](CC(=O)O)NC(=O)CCC(=O)O)C(N)=O [NKF analog, Succ-Asp-Ser-Phe-N(Me)Val-Gly-Leu-Met-NH2] | 160.6 ± 0.42 | 74.89 ± 0.66 | increased | increased | 43.2 ± 1.06 | 2.69 ± 0.38 | 25.74 ± 0.24 | 2.57 ± 0.33 nM | 1.73 ± 0.46 | 2 | 1 | 0.47 nM and 0.474 nM | 1.15 ± 0.4 | – | – | – | – | –
CSCC[C@H](NC(=O)[C@H](CC(C)C)NC(=O)CNC(=O)[C@H](Cc1ccccc1)N(C)C(=O)[C@H](Cc1ccccc1)NC(=O)[C@H](CC(=O)O)NC(=O)CCC(=O)O)C(N)=O [Senktide] (Suc-DF[NMeF]GLM-NH2) | 3541 ± 1.47 | 50.16 ± 0.17 | – | – | – | – | – | 14.1 ± 0.61 nM | – | – | – | – | – | 128 ± 35 | – | – | – | –
CC[C@H](C)[C@H](NC(=O)[C@H](Cc1ccccc1)NC(=O)[C@@H](NC(=O)[C@H](CC(=O)O)NC(=O)[C@H](CC(=O)O)NC(=O)[C@H](CCSC)NC(=O)[C@@H]1CCC(=O)N1)[C@@H](C)CC)C(=O)NCC(=O)N[C@@H](CC(C)C)C(=O)N[C@@H](CCSC)C(N)=O [tiNKB] ([pGlu]MDDIFIGLM-NH2) | 26.5 ± 0.27 | – | increased | increased | 0.02 | – | – | 0.8 nM and 0.81 nM | 7.41 ± 0.44 | 2 | 2 | – | – | – | increased | 3.38 ± 0.42 | 1 | up to 4 h
